According to US8987314B2, “Amide, urea or sulfone amide linked benzothiazole inhibitors of endothelial lipase” (Bristol-Myers Squibb Company, priority 2012, dated 2015):

Legend:
[1] = biological target: hepatic lipase (HL) (Homo sapiens (Human), UniProt P11150); assay: HL assay: hepatic lipase activity with fluorescent substrate A10070 in DMPG vesicles; assay type: biochemical
How it was run: (§1)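 Compounds were preincubated with enzyme for 30 min at 37° C before FRET-substrate vesicles (A10070 in DMPG, 0.11 mole fraction) were added. Reaction rates were obtained from the 300–900 sec slope of fluorescence at 490/530 nm.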

[2] = biological target: Endothelial lipase (EL) (Homo sapiens (Human), UniProt Q9Y5X9); assay: EL assay: endothelial lipase activity with fluorescent substrate A10070 in DMPG vesicles; assay type: biochemical
Sequence of Endothelial lipase (EL) (Q9Y5X9 21-500): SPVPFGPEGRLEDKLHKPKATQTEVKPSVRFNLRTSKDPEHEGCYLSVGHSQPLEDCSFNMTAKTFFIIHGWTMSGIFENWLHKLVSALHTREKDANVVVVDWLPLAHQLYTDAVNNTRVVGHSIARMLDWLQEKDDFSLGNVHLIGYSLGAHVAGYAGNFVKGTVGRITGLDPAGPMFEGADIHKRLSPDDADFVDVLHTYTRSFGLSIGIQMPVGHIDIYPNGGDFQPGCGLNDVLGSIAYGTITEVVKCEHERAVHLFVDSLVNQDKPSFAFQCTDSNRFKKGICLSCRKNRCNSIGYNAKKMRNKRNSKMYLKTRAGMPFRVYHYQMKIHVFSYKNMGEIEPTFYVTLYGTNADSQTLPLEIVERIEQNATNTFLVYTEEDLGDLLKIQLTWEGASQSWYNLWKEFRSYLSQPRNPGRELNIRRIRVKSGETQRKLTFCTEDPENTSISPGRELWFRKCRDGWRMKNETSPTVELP
How it was run: as §1

Sequence of hepatic lipase (HL) (P11150 23-499, species assumed): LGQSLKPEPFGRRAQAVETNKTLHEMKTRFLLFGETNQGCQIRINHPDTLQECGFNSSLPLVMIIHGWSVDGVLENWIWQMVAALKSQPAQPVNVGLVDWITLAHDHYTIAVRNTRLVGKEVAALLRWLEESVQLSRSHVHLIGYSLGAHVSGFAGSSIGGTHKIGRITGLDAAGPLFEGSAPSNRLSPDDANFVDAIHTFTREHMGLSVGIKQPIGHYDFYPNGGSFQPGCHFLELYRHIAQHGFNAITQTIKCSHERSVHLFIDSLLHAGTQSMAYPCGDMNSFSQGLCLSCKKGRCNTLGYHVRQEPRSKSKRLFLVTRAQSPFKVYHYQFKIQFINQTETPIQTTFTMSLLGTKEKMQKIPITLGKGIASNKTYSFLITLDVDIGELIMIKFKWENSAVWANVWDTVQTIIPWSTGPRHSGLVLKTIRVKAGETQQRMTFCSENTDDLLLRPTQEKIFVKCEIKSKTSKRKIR

Structure (SMILES) | IC50 [1] [nM] | IC50 [2] [nM]
Cc1nnc(CNC(=O)C(c2nc3ccc(-c4ccc(C(=O)N5CC(C)(O)C5)cc4)cc3s2)S(C)(=O)=O)o1 (stereo not shown) [Example B263, 2-{6-[4-(3-hydroxy-3-methylazetidine-1-carbonyl)phenyl]-1,3-benzothiazol-2-yl}-2-methanesulfonyl-N-[(5-methyl-1,3,4-oxadiazol-2-yl)methyl]acetamide] | 10000 | 77
COCCNC(=O)c1ccc(-c2ccc3nc(C(C(=O)NCc4nnc(C)o4)S(=O)(=O)CCOC)sc3c2)cc1 (stereo not shown) [Example B264, 4-{2-[(2-methoxyethane-sulfonyl)({[(5-methyl-1,3,4-oxadiazol-2-yl)meth-yl]carbamoyl})meth-yl]-1,3-benzothiazol-6-yl}-N-(2-methoxyethyl)ben-zamide] | 184 | 93
COCCS(=O)(=O)C(C(=O)NCc1nnc(C)o1)c1nc2ccc(-c3ccc(C(=O)N4CC(C)(O)C4)cc3)cc2s1 (stereo not shown) [Example B265, 2-{6-[4-(3-hydroxy-3-methylazetidine-1-carbonyl)phenyl]-1,3-benzothiazol-2-yl}-2-(2-methoxyethanesulfonyl)-N-[(5-methyl-1,3,4-oxadiazol-2-yl)methyl]a-cetamide] | 634 | 59
COCCNC(=O)c1ccc(-c2cc3sc(C(C(=O)NCc4nnc(C)o4)S(C)(=O)=O)nc3cc2F)cc1 (stereo not shown) [Example B266, 4-{5-fluoro-2-[methanesulfonyl({[(5-methyl-1,3,4-oxadiazol-2-yl)methyl]carbamoyl})meth-yl]-1,3-benzothiazol-6-yl}-N-(2-methoxyethyl)ben-zamide] | 948 | 39.1
COCCNC(=O)c1ccc(-c2ccc3nc(C(C(=O)NCCS(N)(=O)=O)S(=O)(=O)C(C)C)sc3c2)cc1 (stereo not shown) [Example B267, N-(2-methoxyethyl)-4-{2-[(propane-2-sulfonyl)[(2-sul-famoylethyl)carbamoyl]meth-yl]-1,3-benzothiazol-6-yl}benzamide] | 289 | 44.5
CC(C)S(=O)(=O)C(C(=O)NCCS(N)(=O)=O)c1nc2cc(C(F)(F)F)c(-c3ccc(C(=O)N4CCOCC4)cc3)cc2s1 (stereo not shown) [Example B268, 2-{6-[4-(morpholine-4-carbonyl)phenyl]-5-(trifluoromethyl)-1,3-benzothiazol-2-yl}-2-(propane-2-sulfonyl)-N-(2-sulfamoylethyl)acetamide] | 406 | 9.2
COCCNC(=O)c1ccc(-c2cc3sc(C(C(=O)NCCS(N)(=O)=O)S(=O)(=O)C(C)C)nc3cc2C(F)(F)F)cc1 (stereo not shown) [Example B269, N-(2-methoxyethyl)-4-{2-[(propane-2-sulfonyl)[(2-sul-famoylethyl)carbamoyl]meth-yl]-5-(trifluoro-methyl)-1,3-benzothiazol-6-yl}benzamide] | 312 | 10
COCCS(=O)(=O)NS(=O)(=O)c1cccc(CNC(=O)C(c2nc3cc(-c4ccccc4)ccc3s2)S(=O)(=O)CCOC)c1 (stereo not shown) [Example B270, N-({3-[(2-methoxyethane-sulfonamido)sulfonyl]phen-yl}methyl)-2-(2-methoxyethanesulfonyl)-2-(5-phenyl-1,3-benzothiazol-2-yl)a-cetamide] | 212 | 205
CC(C)S(=O)(=O)C(C(=O)NCCS(N)(=O)=O)c1nc2ccc(-c3cccc(C(=O)N(C)C)c3)cc2s1 (stereo not shown) [Example B272, N,N-dimethyl-3-{2-[(propane-2-sulfonyl)[(2-sul-famoylethyl)carbamoyl]meth-yl]-1,3-benzothiazol-6-yl}benzamide] | 612 | 35.3
Cc1cc2nc(C(C(=O)NCCS(N)(=O)=O)S(=O)(=O)Cc3ccccc3)sc2cc1-c1ccc(C(=O)OC(C)(C)C)cc1 (stereo not shown) [Example B273, tert-butyl 4-(5-methyl-2-{phenylmethanesulfonyl[(2-sulfamoylethyl)car-bamoyl]methyl}-1,3-benzothiazol-6-yl)benzoate] | 3 | 1.4
Cc1cc2nc(C(C(=O)NCCS(N)(=O)=O)S(C)(=O)=O)sc2cc1-c1ccc(C(=O)OC(C)(C)C)cc1 (stereo not shown) [Example B274, tert-butyl 4-(2-{methanesulfonyl[(2-sul-famoylethyl)carbamoyl]meth-yl}-5-methyl-1,3-benzothiazol-6-yl)benzoate] | 5.1 | 1.7
CS(=O)(=O)C(C(=O)NCc1ccccc1S(N)(=O)=O)c1nc2ccc(-c3ccc(N4CCCCC4)cc3)cc2s1 (stereo not shown) [Example B275, 2-methanesulfonyl-2-{6-[4-(piperidin-1-yl)phenyl]-1,3-benzothiazol-2-yl}-N-[(2-sulfamoylphenyl)meth-yl]acetamide] | 218 | 173
CC(C)(C)OC(=O)c1ccc(-c2ccc3nc(C(C(=O)NCCS(N)(=O)=O)S(=O)(=O)Cc4ccccc4)sc3c2)cc1 (stereo not shown) [Example B276, tert-butyl 4-(2-{phenylmethanesulfonyl[(2-sulfamoylethyl)car-bamoyl]methyl)-1,3-benzothiazol-6-yl)benzoate] | 0.8 | 1.1
NS(=O)(=O)c1cccc(CNC(=O)C(c2nc3ccc(-c4ccc(C(=O)N5CCCC5)cc4)cc3s2)S(=O)(=O)Cc2ccccc2)c1 (stereo not shown) [Example B277, 2-phenylmethanesulfonyl-2-{6-[4-(pyrrolidine-1-carbonyl)phenyl]-1,3-benzothiazol-2-yl}-N-[(3-sulfamoylphenyl)methyl]a-cetamide] | 84.9 | 191
NS(=O)(=O)c1cccc(CNC(=O)C(c2nc3ccc(-c4ccncc4Cl)cc3s2)S(=O)(=O)Cc2ccccc2)c1 (stereo not shown) [Example B278, 2-[6-(3-chloropyridin-4-yl)-1,3-benzothiazol-2-yl]-2-phenylmethanesulfonyl-N-[(3-sulfamoylphen-yl)methyl]acetamide] | 355 | 158

Further lines, results first:

IC50 [1] [nM] | IC50 [2] [nM] | Structure (SMILES)
2.8 | 15.6 | Cc1nnc(CNC(=O)C(c2nc3ccc(-c4ccc(C(=O)OC(C)(C)C)cc4)cc3s2)S(C)(=O)=O)s1 (stereo not shown) [Example B279, tert-butyl 4-{2-[methanesulfonyl({[(5-methyl-1,3,4-thiadiazol-2-yl)methyl]carbamoyl})meth-yl]-1,3-benzothiazol-6-yl}benzoate]
2.9 | 4.8 | CC(C)S(=O)(=O)C(C(=O)NCCS(N)(=O)=O)c1nc2c(F)cc(-c3cccc(C(=O)OC(C)(C)C)c3)cc2s1 (stereo not shown) [Example B280, tert-butyl 3-{4-fluoro-2-[(propane-2-sulfonyl)[(2-sul-famoylethyl)carbamoyl]meth-yl]-1,3-benzothiazol-6-yl}benzoate]
110 | 17.9 | COCCS(=O)(=O)C(C(=O)NCCS(N)(=O)=O)c1nc2ccc(-c3ccc(F)nc3)cc2s1 (stereo not shown) [Example B281, 2-[6-(6-fluoropyridin-3-yl)-1,3-benzothiazol-2-yl]-2-(2-methoxyethane-sulfonyl)-N-(2-sulfamoylethyl)acetamide]
306 | 2.6 | COCCNC(=O)c1ccc(-c2ccc3nc(C(C(=O)NCCS(N)(=O)=O)S(=O)(=O)Cc4ccc(OC(F)(F)F)cc4)sc3c2)cc1 (stereo not shown) [Example B282, N-(2-methoxyethyl)-4-(2-{[(2-sulfamoylethyl)car-bamoyl][4-(trifluoromethoxy)phen-yl]methanesulfonylmethyl}-1,3-benzothiazol-6-yl)ben-zamide]
365 | 53.8 | NS(=O)(=O)CCNC(=O)C(c1nc2ccc(-c3ccc(C(=O)N4CCOCC4)cc3)cc2s1)S(=O)(=O)CC1CC1 (stereo not shown) [Example B283, 2-cyclopropylmethane-sulfonyl-2-{6-[4-(morpholine-4-carbonyl)phenyl]-1,3-benzothiazol-2-yl}-N-(2-sulfamoylethyl)acetamide]
2.6 | 6.8 | NS(=O)(=O)CCNC(=O)C(c1nc2ccc(-c3ccccc3)cc2s1)S(=O)(=O)CCC(F)(F)F (stereo not shown) [Example B284, 2-(6-phenyl-1,3-benzothiazol-2-yl)-N-(2-sulfamoylethyl)-2-(3,3,3-trifluoropropanesulfonyl)a-cetamide]
126 | 5.4 | COCc1ccc(-c2ccc3nc(C(C(=O)NCCS(N)(=O)=O)S(=O)(=O)Cc4ccc(OC(F)(F)F)cc4)sc3c2)cc1 (stereo not shown) [Example B285, 2-{6-[4-(methoxymethyl)phenyl]-1,3-benzothiazol-2-yl}-N-(2-sulfamoylethyl)-2-{[4-(trifluoromethoxy)phen-yl]methanesulfonyl}a-cetamide]
55.5 | 3.9 | COCc1ccc(-c2ccc3nc(C(C(=O)NCCS(N)(=O)=O)S(=O)(=O)CC4CC4)sc3c2)cc1 (stereo not shown) [Example B286, 2-cyclopropylmethane-sulfonyl-2-{6-[4-(methoxymethyl)phenyl]-1,3-benzothiazol-2-yl}-N-(2-sulfamoylethyl)a-cetamide]
90 | 7 | CC(=O)Nc1ccc(-c2ccc3nc(C(C(=O)NCCS(N)(=O)=O)S(=O)(=O)Cc4ccc(C(F)(F)F)cc4)sc3c2)cc1 (stereo not shown) [Example B287, 2-[6-(4-acetamidophenyl)-1,3-benzothiazol-2-yl]-N-(2-sulfamoylethyl)-2-{[4-(trifluoromethyl)phen-yl]methanesulfonyl}a-cetamide]
124 | 0.8 | COCCN(C)C(=O)c1ccc(-c2ccc3nc(C(C(=O)NCCS(N)(=O)=O)S(=O)(=O)Cc4ccc(C(F)(F)F)cc4)sc3c2)cc1 (stereo not shown) [Example B288, N-(2-methoxyethyl)-N-methyl-4-(2-{[(2-sulfamoylethyl)carbamoyl][4-(trifluoromethyl)phen-yl]methanesulfonylmethyl}-1,3-benzothiazol-6-yl)ben-zamide]
21.7 | 3.1 | COCCN(C)C(=O)c1ccc(-c2ccc3nc(C(C(=O)NCCS(N)(=O)=O)S(=O)(=O)Cc4ccc(OC(F)(F)F)cc4)sc3c2)cc1 (stereo not shown) [Example B289, N-(2-methoxyethyl)-N-methyl-4-(2-{[(2-sulfamoyl-ethyl)carbamoyl][4-(trifluoromethoxy)phen-yl]methanesulfonyl-methyl}-1,3-benzothiazol-6-yl)benzamide]
